Test results: ChEMBL document CHEMBL3877302, “Design and Synthesis of a New Series of 4-Heteroarylamino-1'-azaspiro[oxazole-5,3'-bicyclo[2.2.2]octanes as α7 Nicotinic Receptor Agonists. 1. Development of Pharmacophore and Early Structure-Activity Relationship” (J Med Chem, 2016)
Active and inactive are the calls of the source. No cut-off for these calls is given here.

Tests used:
[1] = Metabolic stability in human microsomes assessed as compound remaining measured after 10 mins; format: ADME, Microsome; details: read-out: Stability
[2] = target: T1, Cytochrome P450 2B6 (Homo sapiens, UniProt P20813); assay: Inhibition of human CYP2B6; format: ADME
T1 sequence (P20813 whole entry): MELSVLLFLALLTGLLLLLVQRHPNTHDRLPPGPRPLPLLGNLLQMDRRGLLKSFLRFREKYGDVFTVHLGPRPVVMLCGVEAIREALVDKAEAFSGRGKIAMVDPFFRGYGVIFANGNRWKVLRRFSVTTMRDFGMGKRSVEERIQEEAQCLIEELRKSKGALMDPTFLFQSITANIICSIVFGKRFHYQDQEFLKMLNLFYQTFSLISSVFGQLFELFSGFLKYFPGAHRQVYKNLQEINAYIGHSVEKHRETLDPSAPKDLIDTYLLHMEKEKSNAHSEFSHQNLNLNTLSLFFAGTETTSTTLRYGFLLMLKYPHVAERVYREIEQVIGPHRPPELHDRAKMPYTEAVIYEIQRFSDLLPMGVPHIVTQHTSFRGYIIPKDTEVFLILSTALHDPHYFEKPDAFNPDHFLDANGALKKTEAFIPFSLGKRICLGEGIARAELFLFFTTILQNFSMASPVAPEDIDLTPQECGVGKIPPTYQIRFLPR

[3] = Plasma concentration in C57Bl/6 mouse NOR model at 0.03 mg/kg, sc measured after 0.5 hrs; format: ADME, organism-based
[4] = target: T2, Cytochrome P450 2C8 (Homo sapiens, UniProt P10632); assay: Inhibition of human CYP2C8; format: ADME
T2 sequence (P10632 whole entry): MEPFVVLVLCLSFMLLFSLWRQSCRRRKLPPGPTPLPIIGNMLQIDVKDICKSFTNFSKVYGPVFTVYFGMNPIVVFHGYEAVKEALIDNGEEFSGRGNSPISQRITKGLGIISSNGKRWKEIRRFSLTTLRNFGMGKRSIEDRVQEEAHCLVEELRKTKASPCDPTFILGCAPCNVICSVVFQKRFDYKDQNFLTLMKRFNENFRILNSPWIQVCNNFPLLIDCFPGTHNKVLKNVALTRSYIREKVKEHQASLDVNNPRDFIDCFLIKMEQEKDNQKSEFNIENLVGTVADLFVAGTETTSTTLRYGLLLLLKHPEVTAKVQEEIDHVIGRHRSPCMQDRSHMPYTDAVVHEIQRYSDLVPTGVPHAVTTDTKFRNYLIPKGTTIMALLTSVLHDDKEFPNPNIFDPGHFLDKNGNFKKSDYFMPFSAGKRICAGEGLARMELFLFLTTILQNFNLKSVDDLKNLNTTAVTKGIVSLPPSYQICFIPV

[5] = system: Mus musculus; assay: Reversal of NMDAR antagonist MK-801-induced memory deficits in C57Bl/6 mouse at 1 and 3 mg/kg, sc administered 30 mins prior to […] challenge measured after 30 mins by Y maze assay; format: functional, organism-based
[6] = Drug uptake in C57Bl/6 mouse NOR model brain at 0.3 mg/kg, sc measured after 2 hrs; format: ADME, organism-based; details: read-out: Drug uptake
[7] = target: Cytochrome P450 2D6 (Homo sapiens, UniProt P10635); assay: Inhibition of human CYP2D6; format: ADME
[8] = Fraction unbound in mouse plasma; format: ADME, cell-free
[9] = Metabolic stability in rat microsomes assessed as compound remaining measured after 10 mins; format: ADME, Microsome; details: read-out: Stability
[10] = target: Neuronal acetylcholine receptor; alpha3/beta4 (Rattus norvegicus, UniProt P04757+P12392); assay: Agonist activity at rat alpha3beta4 nAChR expressed in HEK293 cells for 2 mins by FLIPR assay; format: cell-based
[11] = system: Mus musculus; assay: Cognitive enhancing effect in C57Bl/6 mouse administered subcutaneously for 30 mins prior to training measured after 24 hrs by novel recognition assay; format: functional; details: C57Bl/6, sc, read-out: MED
[12] = Drug uptake in C57Bl/6 mouse NOR model brain at 0.03 mg/kg, sc measured after 0.5 hrs; format: ADME, organism-based; details: read-out: Drug uptake
[13] = Plasma concentration in C57Bl/6 mouse NOR model at 0.1 mg/kg, sc measured after 0.5 hrs; format: ADME, organism-based
[14] = target: Cytochrome P450 2C19 (Homo sapiens, UniProt P33261); assay: Inhibition of human CYP2C19; format: ADME
[15] = Plasma concentration in C57Bl/6 mouse NOR model at 1 mg/kg, sc measured after 0.5 hrs; format: ADME, organism-based
[16] = Fraction unbound in human plasma; format: ADME, cell-free
[17] = Drug uptake in C57Bl/6 mouse NOR model brain at 1 mg/kg, sc measured after 0.5 hrs; format: ADME, organism-based; details: read-out: Drug uptake
[18] = target: T3, Cytochrome P450 3A4 (Homo sapiens, UniProt P08684); assay: Inhibition of human CYP3A4 using BFC as substrate; format: ADME
[19] = target: Neuronal acetylcholine receptor; alpha4/beta2 (Rattus norvegicus, UniProt P09483+P12390); assay: Agonist activity at rat alpha4beta2 nAChR expressed in HEK293 cells for 2 mins by FLIPR assay; format: cell-based
[20] = target: Nicotinic acetylcholine receptor alpha-1/beta-1/delta/epsilon (Rattus norvegicus, UniProt P09660+P25108+P25109+P25110); assay: Agonist activity at rat alpha1beta1deltaepsilon nAChR expressed in HEK293 cells for 2 mins by FLIPR assay; format: cell-based
[21] = system: Mus musculus; assay: Cognitive enhancing effect in C57Bl/6 mouse at 0.3 mg/kg, sc administered 30 mins to 6 hrs prior to training measured after 24 hrs by novel recognition assay; format: functional, organism-based
[22] = target: T4, Cytochrome P450 1A2 (Homo sapiens, UniProt P05177); assay: Inhibition of human CYP1A2; format: ADME
T4 sequence (P05177 whole entry): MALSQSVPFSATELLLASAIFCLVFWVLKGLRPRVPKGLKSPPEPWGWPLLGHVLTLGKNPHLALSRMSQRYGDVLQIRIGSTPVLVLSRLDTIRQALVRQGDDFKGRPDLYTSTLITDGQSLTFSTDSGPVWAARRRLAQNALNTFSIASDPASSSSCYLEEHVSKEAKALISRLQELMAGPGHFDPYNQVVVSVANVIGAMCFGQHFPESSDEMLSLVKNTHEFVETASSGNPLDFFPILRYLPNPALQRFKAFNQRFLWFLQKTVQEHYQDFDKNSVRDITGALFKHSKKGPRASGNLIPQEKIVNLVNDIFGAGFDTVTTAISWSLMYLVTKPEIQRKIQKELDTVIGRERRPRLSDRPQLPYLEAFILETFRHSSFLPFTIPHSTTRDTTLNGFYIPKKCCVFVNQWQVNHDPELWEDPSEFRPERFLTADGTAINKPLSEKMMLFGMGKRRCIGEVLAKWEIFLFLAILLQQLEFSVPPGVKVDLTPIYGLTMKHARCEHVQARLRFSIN

[23] = Drug uptake in C57Bl/6 mouse NOR model brain at 0.1 mg/kg, sc measured after 0.5 hrs; format: ADME, organism-based; details: read-out: Drug uptake
[24] = target: T3, Cytochrome P450 3A4; assay: Inhibition of human CYP3A4 using BZR as substrate; format: ADME
[25] = system: Mus musculus; assay: Cognitive enhancing effect in C57Bl/6 mouse at 0.1 to 1 mg/kg, sc administered 30 mins prior to training measured after 24 hrs by novel recognition assay; format: functional, organism-based
[26] = Fraction unbound in rat plasma; format: ADME, cell-free
[27] = Plasma concentration in C57Bl/6 mouse NOR model at 0.3 mg/kg, sc measured after 6 hrs; format: ADME, organism-based
[28] = Metabolic stability in mouse microsomes assessed as compound remaining measured after 10 mins; format: ADME, Microsome; details: read-out: Stability
[29] = Drug uptake in C57Bl/6 mouse NOR model brain at 0.3 mg/kg, sc measured after 0.5 hrs; format: ADME, organism-based; details: read-out: Drug uptake
[30] = Plasma concentration in C57Bl/6 mouse NOR model at 0.3 mg/kg, sc measured after 2 hrs; format: ADME, organism-based
[31] = Drug uptake in C57Bl/6 mouse NOR model brain at 0.3 mg/kg, sc measured after 6 hrs; format: ADME, organism-based; details: read-out: Drug uptake
[32] = target: Cytochrome P450 2C9 (Homo sapiens, UniProt P11712); assay: Inhibition of human CYP2C9; format: ADME
[33] = Plasma concentration in C57Bl/6 mouse NOR model at 0.3 mg/kg, sc measured after 0.5 hrs; format: ADME, organism-based

T3 sequence (P08684 whole entry): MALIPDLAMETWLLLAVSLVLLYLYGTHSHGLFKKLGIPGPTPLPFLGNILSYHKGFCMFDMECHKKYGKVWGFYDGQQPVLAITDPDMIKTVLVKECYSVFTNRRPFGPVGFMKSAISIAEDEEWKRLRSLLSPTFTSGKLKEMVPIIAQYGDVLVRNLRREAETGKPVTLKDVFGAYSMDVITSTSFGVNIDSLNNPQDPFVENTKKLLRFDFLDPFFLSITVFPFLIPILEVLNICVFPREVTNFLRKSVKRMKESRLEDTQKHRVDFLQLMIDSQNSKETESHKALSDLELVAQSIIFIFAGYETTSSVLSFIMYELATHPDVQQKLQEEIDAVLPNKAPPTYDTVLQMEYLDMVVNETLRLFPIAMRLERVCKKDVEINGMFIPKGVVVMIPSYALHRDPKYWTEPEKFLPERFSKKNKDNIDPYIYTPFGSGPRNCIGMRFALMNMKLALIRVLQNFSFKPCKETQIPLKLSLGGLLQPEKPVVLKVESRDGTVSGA
Neuronal acetylcholine receptor; alpha4/beta2, sequence (P09483 whole entry): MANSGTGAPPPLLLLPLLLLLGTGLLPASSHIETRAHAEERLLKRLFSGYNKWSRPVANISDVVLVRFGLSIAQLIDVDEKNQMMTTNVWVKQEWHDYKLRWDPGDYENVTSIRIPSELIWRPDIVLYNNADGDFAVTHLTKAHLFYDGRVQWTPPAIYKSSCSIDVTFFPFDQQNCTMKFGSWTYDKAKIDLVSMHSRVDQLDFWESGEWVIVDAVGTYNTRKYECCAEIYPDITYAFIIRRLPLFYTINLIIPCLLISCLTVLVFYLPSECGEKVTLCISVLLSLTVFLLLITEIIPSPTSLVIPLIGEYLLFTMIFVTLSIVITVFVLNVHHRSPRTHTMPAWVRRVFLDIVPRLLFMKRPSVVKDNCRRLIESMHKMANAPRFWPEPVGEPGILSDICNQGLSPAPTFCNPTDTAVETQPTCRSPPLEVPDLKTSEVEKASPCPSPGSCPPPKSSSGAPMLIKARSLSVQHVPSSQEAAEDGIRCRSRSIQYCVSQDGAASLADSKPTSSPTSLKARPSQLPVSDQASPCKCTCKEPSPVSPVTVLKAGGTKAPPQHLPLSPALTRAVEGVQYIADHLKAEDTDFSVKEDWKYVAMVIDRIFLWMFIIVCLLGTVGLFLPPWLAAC
Neuronal acetylcholine receptor; alpha4/beta2, sequence (P12390 whole entry): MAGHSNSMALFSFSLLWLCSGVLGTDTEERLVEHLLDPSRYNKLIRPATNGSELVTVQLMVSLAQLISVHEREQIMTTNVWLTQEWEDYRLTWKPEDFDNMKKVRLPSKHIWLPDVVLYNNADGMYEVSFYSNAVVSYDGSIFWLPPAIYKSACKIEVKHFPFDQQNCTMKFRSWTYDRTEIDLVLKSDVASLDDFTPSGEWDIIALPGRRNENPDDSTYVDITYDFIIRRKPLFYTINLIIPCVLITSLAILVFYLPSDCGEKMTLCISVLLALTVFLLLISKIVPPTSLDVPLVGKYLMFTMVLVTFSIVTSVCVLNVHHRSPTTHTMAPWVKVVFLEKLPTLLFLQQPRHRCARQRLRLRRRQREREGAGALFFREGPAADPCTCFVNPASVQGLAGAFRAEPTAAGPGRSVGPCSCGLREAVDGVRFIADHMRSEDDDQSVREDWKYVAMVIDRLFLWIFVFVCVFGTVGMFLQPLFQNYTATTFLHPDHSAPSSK
Neuronal acetylcholine receptor; alpha3/beta4, sequence (P04757 whole entry): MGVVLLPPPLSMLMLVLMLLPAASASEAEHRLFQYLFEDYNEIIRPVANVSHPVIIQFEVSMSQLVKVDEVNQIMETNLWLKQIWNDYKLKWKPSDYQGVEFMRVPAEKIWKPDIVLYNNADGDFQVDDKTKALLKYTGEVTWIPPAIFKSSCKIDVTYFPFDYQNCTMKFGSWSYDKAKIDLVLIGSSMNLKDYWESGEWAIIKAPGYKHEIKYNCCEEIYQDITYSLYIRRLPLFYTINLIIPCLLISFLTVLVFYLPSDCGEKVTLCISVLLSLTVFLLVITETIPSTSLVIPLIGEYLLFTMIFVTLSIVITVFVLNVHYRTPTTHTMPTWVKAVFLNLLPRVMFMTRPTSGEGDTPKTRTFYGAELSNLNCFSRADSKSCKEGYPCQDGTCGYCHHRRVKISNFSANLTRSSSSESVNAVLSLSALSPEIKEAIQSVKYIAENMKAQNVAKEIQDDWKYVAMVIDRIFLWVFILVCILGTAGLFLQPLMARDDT
Neuronal acetylcholine receptor; alpha3/beta4, sequence (P12392 whole entry): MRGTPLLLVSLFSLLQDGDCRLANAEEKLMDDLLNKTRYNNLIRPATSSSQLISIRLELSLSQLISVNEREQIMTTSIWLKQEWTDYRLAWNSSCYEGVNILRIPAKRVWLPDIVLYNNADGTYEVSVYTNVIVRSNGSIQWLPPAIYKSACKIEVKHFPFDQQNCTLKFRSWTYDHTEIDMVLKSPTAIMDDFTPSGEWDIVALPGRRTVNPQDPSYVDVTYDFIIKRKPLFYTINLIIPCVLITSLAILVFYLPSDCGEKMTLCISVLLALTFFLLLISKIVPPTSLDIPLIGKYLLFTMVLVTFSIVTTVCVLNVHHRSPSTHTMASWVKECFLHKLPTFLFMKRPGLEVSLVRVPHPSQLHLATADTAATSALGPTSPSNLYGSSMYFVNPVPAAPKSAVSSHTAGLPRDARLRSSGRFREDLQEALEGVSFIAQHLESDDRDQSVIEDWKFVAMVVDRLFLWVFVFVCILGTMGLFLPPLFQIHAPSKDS
Cytochrome P450 2D6, sequence (P10635 whole entry): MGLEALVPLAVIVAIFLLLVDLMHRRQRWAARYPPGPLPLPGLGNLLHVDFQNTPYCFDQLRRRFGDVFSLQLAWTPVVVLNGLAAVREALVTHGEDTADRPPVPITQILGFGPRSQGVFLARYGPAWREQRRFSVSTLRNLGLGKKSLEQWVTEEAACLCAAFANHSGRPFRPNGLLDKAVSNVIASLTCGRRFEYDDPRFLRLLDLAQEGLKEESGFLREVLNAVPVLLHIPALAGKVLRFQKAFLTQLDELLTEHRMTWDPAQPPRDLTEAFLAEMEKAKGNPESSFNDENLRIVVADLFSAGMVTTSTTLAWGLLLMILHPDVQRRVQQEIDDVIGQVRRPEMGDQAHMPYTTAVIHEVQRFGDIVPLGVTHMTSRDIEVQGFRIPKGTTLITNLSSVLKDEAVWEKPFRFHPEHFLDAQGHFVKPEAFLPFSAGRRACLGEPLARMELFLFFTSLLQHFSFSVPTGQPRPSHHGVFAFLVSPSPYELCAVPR
Cytochrome P450 2C19, sequence (P33261 whole entry): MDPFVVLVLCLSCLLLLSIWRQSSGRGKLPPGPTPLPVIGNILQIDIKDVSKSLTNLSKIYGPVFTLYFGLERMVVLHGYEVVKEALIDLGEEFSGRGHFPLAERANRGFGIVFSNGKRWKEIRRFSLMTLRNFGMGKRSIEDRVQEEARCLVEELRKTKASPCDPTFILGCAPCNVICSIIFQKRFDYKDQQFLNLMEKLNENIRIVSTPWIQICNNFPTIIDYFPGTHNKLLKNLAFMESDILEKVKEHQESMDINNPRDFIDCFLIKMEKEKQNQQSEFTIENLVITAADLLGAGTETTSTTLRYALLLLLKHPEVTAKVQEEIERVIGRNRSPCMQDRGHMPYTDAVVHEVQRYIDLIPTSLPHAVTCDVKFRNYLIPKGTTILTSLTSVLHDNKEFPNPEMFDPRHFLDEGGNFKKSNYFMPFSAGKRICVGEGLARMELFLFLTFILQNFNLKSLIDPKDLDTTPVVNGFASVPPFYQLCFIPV
Cytochrome P450 2C9, sequence (P11712 whole entry): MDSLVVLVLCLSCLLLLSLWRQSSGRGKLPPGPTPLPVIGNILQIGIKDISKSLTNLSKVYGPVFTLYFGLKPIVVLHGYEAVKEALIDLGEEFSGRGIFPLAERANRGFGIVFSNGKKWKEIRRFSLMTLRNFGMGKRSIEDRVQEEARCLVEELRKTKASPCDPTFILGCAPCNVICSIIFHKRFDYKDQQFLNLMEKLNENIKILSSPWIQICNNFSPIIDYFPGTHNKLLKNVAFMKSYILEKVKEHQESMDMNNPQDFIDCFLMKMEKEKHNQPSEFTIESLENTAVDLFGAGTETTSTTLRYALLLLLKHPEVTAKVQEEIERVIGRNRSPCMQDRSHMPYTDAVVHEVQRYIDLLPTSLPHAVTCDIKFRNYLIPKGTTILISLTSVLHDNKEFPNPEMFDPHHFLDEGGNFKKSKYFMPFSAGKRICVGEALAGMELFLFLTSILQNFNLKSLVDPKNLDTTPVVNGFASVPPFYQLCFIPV

c1ccc2cc(NC3=NC[C@@]4(CN5CCC4CC5)O3)ncc2c1
remaining at 10 min [1]: 96% | IC50 [2]: > 40 µM | concentration at 0.5 h [3]: 4 nM | IC50 [4]: > 40 µM | Activity [5]: Active | concentration at 2 h [6]: 96 nM | IC50 [7]: > 40 µM | fraction unbound [8]: 0.23 | remaining at 10 min [9]: 89% | EC50 [10]: > 100 µM | minimal effective dose [11]: 0.1 mg/kg | concentration at 0.5 h [12]: 19 nM | concentration at 0.5 h [13]: 16 nM | IC50 [14]: > 40 µM | concentration at 0.5 h [15]: 184 nM | fraction unbound [16]: 0.247 | concentration at 0.5 h [17]: 744 nM | IC50 [18]: > 40 µM | EC50 [19]: > 100 µM | EC50 [20]: > 100 µM | Activity [21]: Active | IC50 [22]: > 40 µM | concentration at 0.5 h [23]: 57 nM | IC50 [24]: > 40 µM | Activity [25]: Active | fraction unbound [26]: 0.269 | concentration at 6 h [27]: 9 nM | remaining at 10 min [28]: 1% | concentration at 0.5 h [29]: 155 to 182 nM | concentration at 2 h [30]: 26 nM | concentration at 6 h [31]: 18 nM | IC50 [32]: > 40 µM | concentration at 0.5 h [33]: 43 to 69 nM
